This experiment deals with intracoronary thrombus. As to the kind of experiment: Local delivery of urokinase from hydrogel-coated balloon during balloon angioplasty in patients. The settings on record: all 11 patients; balloon immersed in 50,000 units/ml; pressure in excess of 2 atmospheres; 1-2 inflations, 1-5 minutes. In kind it is in vivo. As to the method:
To evaluate the efficacy of local delivery of urokinase during balloon angioplasty in treating intracoronary thrombus according to the invention, 11 patients were treated with hydrogel-coated balloons which had been immersed in a concentrated solution of urokinase (50,000 units/ml). Eight patients presented with acute myocardial infarctions, while the remaining three had unstable angina. Five patients had received intravenous thrombolytic therapy, including systemic thrombolysis. Conventional balloon angioplasty was initially performed in 9 of the 11 patients and was complicated either by acute thrombotic closure (n=7) or slow antegrade flow with the appearance of intracoronary thrombus (n=2). The remaining 2 patients had coronary stenoses with angiographic evidence of thrombus, but were not initially treated with conventional angioplasty.

The source of these data is US6409716B1, “Drug delivery” (Scimed Life Systems, Inc., priority 1989, dated 2002).

With urokinase, the “outcome of balloon dilatation with urokinase-impregnated, hydrogel-coated balloon” value was “reversal of abrupt closure and dissolution of intracoronary thrombus”.
